Source: patent publication US20240000777A1, “USE OF AN ERK INHIBITOR FOR THE TREATMENT OF MYELOFIBROSIS” (Novartis AG, priority 2020, published 2024)

Experiments:
[1] = tested on: Jak2V617F Erk1-/- Erk2 fl/fl Mx-Cre mice; experiment: Genetic deletion of ERK1/2 plus ruxolitinib in Jak2V617F MPN mouse model; type: in vivo; details: ruxolitinib for 2 weeks combined with ERK1/2 deletion
Description: Jak2V617F Mx-Cre mouse was crossed with Erk1−/− Erk2 fl/fl Mx-Cre mice to genetically delete ERK1/2 to obtain Jak2V617F Erk1−/− Erk2 fl/fl Mx-Cre offspring.

[2] = tested on: JAK2V617F PV/MF mouse model; type: in vivo; details: oral, 14 consecutive days, ruxolitinib 60 mg/kg BID, Compound A 75 mg/kg QD

SMILES	normalizing red blood cell count ([1]; FIG. 7B)	reducing the mutant clone ([1]; versus single interventions, FIG. 7A)	polycythemia [2]	elevated hematocrit ([2]; FIG. 3A)	splenomegaly ([2]; FIG. 3B)
N#CC[C@H](C1CCCC1)n1cc(-c2ncnc3[nH]ccc23)cn1 [ruxolitinib, (R)-3-(4-(7H-pyrrolo[2,3-d]pyrimidin-4-yl)-1H-pyrazol-1-yl)-3-cyclopentylpropanenitrile]	more effective	more effective	–	–	–
CNC[C@@H](NC(=O)c1ccc(-c2nc([C@H]3CC[C@H](O)[C@@H](F)C3)cnc2N)cc1F)c1cc(F)cc(Br)c1 [Compound A, 4-(3-amino-6-((1S,3S,4S)-3-fluoro-4-hydroxycyclohexyl)pyrazin-2-yl)-N—((S)-1-(3-bromo-5-fluorophenyl)-2-(methylamino)ethyl)-2-fluorobenzamide]	–	–	significantly normalizes	significantly normalizes	significantly normalizes
